Each structure is given as a SMILES string.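 Tested at 5 concentrations; 48 h exposure; 96-well plates; endpoints linearly interpolated, else capped at highest concentration. At the GI50, growth is halved. At the TGI there is no net growth.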

Test systems include T-47D breast; HCC-2998 colon; LOX IMVI melanoma; RPMI-8226 leukemia; HOP-92 NSCLC; KM12 colon; HS 578T breast; UACC-257 melanoma; EKVX NSCLC; MDA-MB-435.
Holding throughout (test): inhibition of tumour cell growth, NCI panel, 48 h

With `C=CC(=O)Nc1cccc(Nc2nc(Nc3ccc(OCCOC)cc3)ncc2F)c1`, the GI50 in the experiment on T-47D breast is 1.7 µM; in the experiment on HCC-2998 colon, 3.55 µM; with LOX IMVI melanoma, 1.12 µM; with RPMI-8226 leukemia, 3.28 µM; in the experiment with HOP-92 NSCLC, 0.928 µM; in the experiment on KM12 colon it was 3.43 µM. Further, the GI50 is 1.17 µM with HS 578T breast, 6.4 µM with UACC-257 melanoma, 3.16 µM in the experiment on EKVX NSCLC and 2.87 µM in the experiment with MDA-MB-435. Besides, the TGI in the experiment with T-47D breast amounted to 8.9 µM; in the experiment with HCC-2998 colon it was 19.5 µM; in the experiment with LOX IMVI melanoma it was 3.62 µM; in the experiment on RPMI-8226 leukemia it was 23.3 µM; with HOP-92 NSCLC, 5.34 µM; with KM12 colon it was 15.6 µM. The TGI in the experiment on HS 578T breast came out at 6.97 µM; with UACC-257 melanoma it was 22.5 µM; with EKVX NSCLC, 15.6 µM; in the experiment on MDA-MB-435, 15.7 µM.

In the case of `COc1ccc(NC2=C(Br)C(=O)C(C)=C(C)C2=O)cc1`, the GI50 in the experiment on T-47D breast is 1.93 µM; in the experiment on HCC-2998 colon, 12.4 µM; in the experiment with LOX IMVI melanoma, 1.67 µM; in the experiment on RPMI-8226 leukemia, 2.21 µM; in the experiment on HOP-92 NSCLC it was 1.55 µM; in the experiment with KM12 colon, 5.02 µM. Moreover, the GI50 was 11.8 µM with HS 578T breast, 1.75 µM with UACC-257 melanoma, 1.69 µM in the experiment with EKVX NSCLC and 1.91 µM in the experiment on MDA-MB-435. In addition, the TGI in the experiment on T-47D breast turned out to be 4.81 µM; in the experiment with HCC-2998 colon, 26.5 µM; in the experiment with LOX IMVI melanoma it was 3.17 µM; in the experiment on RPMI-8226 leukemia it was 5.01 µM; with HOP-92 NSCLC, 3.08 µM; in the experiment on KM12 colon it was 19 µM. Besides, the TGI in the experiment on HS 578T breast worked out at 57.5 µM; in the experiment with UACC-257 melanoma it was 3.37 µM; in the experiment on EKVX NSCLC, 3.12 µM; with MDA-MB-435, 3.49 µM.

As for `COc1cc(-c2cn(C)c(=O)c(C)c2C)cc(OC)c1CN1CC[C@H](N2CCN(c3ccc(N[C@H]4CCC(=O)NC4=O)cc3F)CC2)C(F)(F)C1`, the GI50 in the experiment with T-47D breast is 14.3 µM; with HCC-2998 colon, 12.9 µM; in the experiment on LOX IMVI melanoma, 11.5 µM; with RPMI-8226 leukemia it was 6.43 µM; in the experiment with HOP-92 NSCLC, 8.81 µM; with KM12 colon it was 15.1 µM. The GI50 in the experiment on HS 578T breast is 4 µM; with UACC-257 melanoma, 10.5 µM; in the experiment on EKVX NSCLC, 12.7 µM; in the experiment on MDA-MB-435, 13.8 µM. The TGI was 49.3 µM in the experiment with T-47D breast; 25.8 µM in the experiment with HCC-2998 colon; 24.9 µM in the experiment with LOX IMVI melanoma; greater than 100 µM with RPMI-8226 leukemia; 24.8 µM in the experiment on HOP-92 NSCLC; 30.2 µM in the experiment on KM12 colon. In addition, the TGI in the experiment with HS 578T breast was 38.5 µM; with UACC-257 melanoma, 24.2 µM; with EKVX NSCLC, 34.9 µM; with MDA-MB-435, 30 µM.

Turning to `CC(=O)[CH-]C(C)=O.CC(=O)[CH-]C(C)=O.N=CC=N.[Sn+2]`, the GI50 is 1.23 µM in the experiment on T-47D breast; 12.5 µM with HCC-2998 colon; 1.57 µM in the experiment on LOX IMVI melanoma; 1.48 µM in the experiment with RPMI-8226 leukemia; 1.74 µM with HOP-92 NSCLC; 2.94 µM with KM12 colon. The GI50 in the experiment on HS 578T breast is 2.66 µM; in the experiment on UACC-257 melanoma, 4.64 µM; with EKVX NSCLC, 6.42 µM; with MDA-MB-435, 2.59 µM. The TGI with T-47D breast was 2.62 µM; with HCC-2998 colon, 25.2 µM; in the experiment with LOX IMVI melanoma, 2.97 µM; in the experiment with RPMI-8226 leukemia it was 4.38 µM; with HOP-92 NSCLC, 3.79 µM; in the experiment on KM12 colon, 8.49 µM. Also, the TGI was found to be 10.5 µM in the experiment with HS 578T breast, 15.9 µM with UACC-257 melanoma, 19.4 µM in the experiment on EKVX NSCLC and 7.43 µM in the experiment with MDA-MB-435.

`CNC(=O)c1cc(Oc2ccc(NC(=O)Nc3ccc(Cl)c(OC(F)(F)F)c3)c(F)c2)ccn1`: the GI50 is 0.814 µM in the experiment on T-47D breast; 1.62 µM with HCC-2998 colon; 1.76 µM in the experiment with LOX IMVI melanoma; 1.32 µM in the experiment on RPMI-8226 leukemia; 1.53 µM in the experiment on HOP-92 NSCLC; 1.17 µM in the experiment with KM12 colon. The GI50 in the experiment with HS 578T breast is 3.81 µM; with UACC-257 melanoma it was 1.19 µM; in the experiment on EKVX NSCLC, 1.55 µM; in the experiment with MDA-MB-435, 1.29 µM. Moreover, the TGI in the experiment with T-47D breast amounted to 7.27 µM; in the experiment with HCC-2998 colon, 7.08 µM; with LOX IMVI melanoma, 25.2 µM; with RPMI-8226 leukemia, 7.85 µM; in the experiment on HOP-92 NSCLC it was 16.8 µM; in the experiment with KM12 colon it was 9.09 µM. Moreover, the TGI was greater than 33.2 µM with HS 578T breast, 6.54 µM with UACC-257 melanoma, 23.6 µM with EKVX NSCLC and 10.9 µM with MDA-MB-435.

Consider `Oc1ccc(Cc2ccccc2)c2cccnc12`, for which the GI50 in the experiment on T-47D breast is 3.6 µM; with HCC-2998 colon, 3.65 µM; in the experiment on LOX IMVI melanoma it was 1.53 µM; with RPMI-8226 leukemia, 1.46 µM; with HOP-92 NSCLC, 1.02 µM; in the experiment on KM12 colon, 2.07 µM. The GI50 was greater than 100 µM in the experiment with HS 578T breast, 4.06 µM in the experiment with UACC-257 melanoma, 2.32 µM in the experiment on EKVX NSCLC and 1.83 µM in the experiment with MDA-MB-435. Further, the TGI with T-47D breast is greater than 100 µM; in the experiment on HCC-2998 colon, 16.6 µM; in the experiment on LOX IMVI melanoma, 19 µM; with RPMI-8226 leukemia, greater than 100 µM; in the experiment on HOP-92 NSCLC, 39.6 µM; in the experiment with KM12 colon it was 27 µM. The TGI in the experiment with HS 578T breast, in the experiment with UACC-257 melanoma, in the experiment with EKVX NSCLC and in the experiment with MDA-MB-435 was greater than 100 µM throughout.

On to `N#Cc1c(-c2ccccc2)nc2c(c(-c3ccccc3)nn2-c2ccccc2)c1-c1ccc(O)cc1`, for which the GI50 with T-47D breast is 3.05 µM; in the experiment on HCC-2998 colon it was 1.84 µM; in the experiment on LOX IMVI melanoma, 1.68 µM; in the experiment with RPMI-8226 leukemia, 2.42 µM; in the experiment on HOP-92 NSCLC, 2.06 µM; in the experiment with KM12 colon it was 2.02 µM. The GI50 with HS 578T breast was 1.41 µM; in the experiment on UACC-257 melanoma it was 3.13 µM; in the experiment on EKVX NSCLC, 1.92 µM; in the experiment with MDA-MB-435, 1.86 µM. In addition, the TGI came to 23.8 µM in the experiment with T-47D breast; 3.47 µM in the experiment with HCC-2998 colon; 3.05 µM with LOX IMVI melanoma; 17.9 µM with RPMI-8226 leukemia; 4.21 µM with HOP-92 NSCLC; 4.76 µM in the experiment on KM12 colon. Besides, the TGI in the experiment with HS 578T breast amounted to 4.46 µM; with UACC-257 melanoma, 12.1 µM; in the experiment with EKVX NSCLC it was 5.1 µM; with MDA-MB-435, 3.71 µM.
